# Results from patent publication US8252832B2, “Kinesin inhibitors as cancer therapeutics” (Novartis AG, priority 2007, dated 2012).
# Assays:
# [1] = test system: primary blast cells from AML patients; experiment: Cell cycle analysis using propidium iodide staining, AML blasts; type: cell-based, human; details: 0.2 and 2 nM
# Experimental: Primary blast cells from AML patients were tested for sensitivity to compound IIa as shown below. Frozen AML blasts from peripheral blood were obtained from AllCell LLC. (Emeryville, Calif.). Three frozen vials containing ˜1×10^7 PBMCs were purchased. Peripheral blood mononuclear cells (PBMCs) from three newly diagnosed AML patients with a high percentage of blasts (#06-188, 80%; #06-366, 88%; #06-503, 73%) were cultured for several weeks and treated with the KSP inhibitors. The vials were rapidly thawed and the cells were cultured in Iscove's DMEM supplemented with 10% FBS and the following cytokines all at 10 ng/ml: GM-CSF, G-CSF, SCF, IL-3, and IL-6 (all from R&D Systems). Three assays were performed on the cells as follows: • CellTiter-Glo® assay on AML blasts. PBMCs containing AML blasts were seeded in 96-well plates (5000/well) and treated with various concentrations of the compound IIa (10 pM to 10 nM) for 48 hours before cells survival was measured as described above. GI50 values (nM) were calculated as for cell lines. • Cell cycle analysis using propidium iodide staining. […] The DNA content of the fixed and stained cells was analyzed by the BD FACSCalibur flow cytometer using the CellQuest software. • Colony formation assay in methylcellulose containing medium. […] Colonies were counted under a microscope after 2 weeks. […]
# [2] = target: T1, motor domain of human KSP (Eg 5, KNSL1) (Homo sapiens, UniProt P52732); experiment: Assay for determining KSP activity (microtubule/KSP ATPase, Biomol Green); type: biochemical; details: read-out: In vitro activity (IC-50 - nm)
# T1 construct: KSP motor protein (i.e., the KSP motor domain); made in house
# T1 sequence (P52732 18-359 limits assumed): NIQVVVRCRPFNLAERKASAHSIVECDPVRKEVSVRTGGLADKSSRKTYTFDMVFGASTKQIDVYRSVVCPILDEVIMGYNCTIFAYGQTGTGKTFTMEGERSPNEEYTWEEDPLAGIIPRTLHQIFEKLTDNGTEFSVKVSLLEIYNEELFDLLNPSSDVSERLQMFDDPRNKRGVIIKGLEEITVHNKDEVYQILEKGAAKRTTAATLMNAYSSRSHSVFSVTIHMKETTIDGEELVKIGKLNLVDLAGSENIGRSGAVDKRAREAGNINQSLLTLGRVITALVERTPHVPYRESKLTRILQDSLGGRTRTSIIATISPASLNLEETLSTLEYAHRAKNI
# Experimental: Purified microtubules obtained from bovine brain were purchased from Cytoskeleton Inc. (Denver, Colo., USA). The motor domain of human KSP (Eg 5, KNSL1) was cloned, expressed, and purified to greater than 95% homogeneity. Biomol Green™ was purchased from Affinity Research Products Ltd. (Matford Court, Exeter, Devon, United Kingdom). Microtubules and KSP motor protein (i.e., the KSP motor domain) were diluted in assay buffer (20 mM Tris-HCl (pH 7.5), 1 mM MgCl2, 10 mM DTT and 0.25 mg/mL BSA) to a final concentration of 35 μg/mL microtubules and 45 nM KSP. The microtubule/KSP mixture was then pre-incubated at 37° C. for 10 min to promote the binding of KSP to microtubules.
# To each well of the testing plate (384-well plate) containing 1.25 μL of inhibitor or test compound in DMSO (or DMSO only, in the case of controls) were added 25 μL of ATP solution (ATP diluted to a concentration of 300 μM in assay buffer) and 25 μL of the above-described microtubule/KSP solution. The plates were incubated at RT for 1 hour. Following incubation, 65 μL of Biomol Green™ (a malachite green-based dye that detects the release of inorganic phosphate) was added to each well. The plates were incubated for an additional 5-10 minutes then the absorbance at 630 nm was determined using a Victor II plate reader. The amount of absorbance at 630 nm corresponded to the amount of KSP activity in the samples. The IC50 of each inhibitor or test compound was then determined based on the decrease in absorbance at 630 nm at each concentration, via nonlinear regression using either XLFit for Excel or Prism data analysis software by GraphPad Software Inc.
smiles,measurement,setting,value
CC(C)(C)[C@H](c1nc(-c2cc(F)ccc2F)cn1Cc1ccccc1)N(CC[C@H](N)CF)C(=O)CO [Compound IIa],"cell cycle profile, 4N population","[1]; sample #06-366, 24 hours",increase in the number of cells arrested in mitosis
same,"cell cycle profile, <2N population","[1]; sample #06-366, 48 hours",increase in the number of dying cells
same,IC50,[2],800 pM
